Among the data in BindingDB's records for doi:10.1021/jm5013243 (Monash University (Parkville Campus), 2015) are IC50 and EC50 values, retold here.

For assay [1], the target named is Muscarinic acetylcholine receptor M1 (Homo sapiens) (UniProt P11229). In words: Displacement of [3H]NMS from human mAChR1 receptor expressed in F1pIn CHO cells after 60 mins by scintillation counting analysis. On the technique in general: In a radioligand displacement assay an active substance lowers the binding of a labelled ligand.
For assay [2] the target is unchanged. In words: Partial agonist activity at human mAChR1 receptor expressed in F1pIn CHO cells assessed as induction of intracellular calcium mobilization. A general note: Calcium assays in cells follow changes in intracellular calcium, usually with a dye or a luminescent sensor.
The target is the same in assay [3]. In words: Agonist activity at human mAChR1 receptor expressed in F1pIn CHO cells assessed as induction of intracellular calcium mobilization.

Several values for one entry are separate records, joined by “and”; a condition that tells them apart may be missing. Equal values may be shown once.

Muscarinic acetylcholine receptor M1 (Homo sapiens), sequence (P11229 whole entry, looked up): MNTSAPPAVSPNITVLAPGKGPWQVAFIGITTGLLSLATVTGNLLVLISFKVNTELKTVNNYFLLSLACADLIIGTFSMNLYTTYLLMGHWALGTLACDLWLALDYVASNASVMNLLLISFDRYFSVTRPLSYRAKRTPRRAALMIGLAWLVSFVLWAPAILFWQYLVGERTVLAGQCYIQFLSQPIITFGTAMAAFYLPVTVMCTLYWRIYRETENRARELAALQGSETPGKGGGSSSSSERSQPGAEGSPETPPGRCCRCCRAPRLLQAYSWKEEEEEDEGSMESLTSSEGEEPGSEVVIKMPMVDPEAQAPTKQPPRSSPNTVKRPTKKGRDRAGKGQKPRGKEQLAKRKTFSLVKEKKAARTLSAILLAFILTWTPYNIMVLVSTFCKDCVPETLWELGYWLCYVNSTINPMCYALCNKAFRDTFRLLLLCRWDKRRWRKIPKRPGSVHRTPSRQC

For `O=C1COc2ccccc2N1CCCN1CCN(c2cccc3[nH]c(=O)oc23)CC1`, the IC50 (as a rule, the concentration at which inhibition is half-maximal) in assay [1] is 4.27 µM and 4.26 µM. Still for that read-out and setting: the figure for `O=C1COc2ccccc2N1CCCN1CCN(c2cccc(Cl)c2Cl)CC1` is 1.86 µM and 1.87 µM. For `O=C1COc2ccccc2N1CCCN1CCN(c2nsc3ccccc23)CC1`, the EC50 (usually the concentration needed to bring the measured effect to its halfway point) in assay [2] is 1.04 µM and 1.05 µM. The IC50 in assay [1] was 4.19 µM and 4.17 µM. On to `O=C1COc2ccccc2N1CCCN1CCC(c2noc3cc(F)ccc23)CC1`, for which, in assay [1], the 50% inhibitory concentration (IC50) was 3.25 µM and 3.24 µM. Same read-out and setting: the figure for `COc1ccccc1N1CCN(CCCN2C(=O)COc3ccccc32)CC1` is 5.18 µM and 5.13 µM.

As to `O=C(Cc1ccccc1)NC1CCN(CCCN2C(=O)COc3ccccc32)CC1` [N-{1-[3-(3-Oxo-2,3-dihydrobenzo[1,4]oxazin-4-yl)propyl]-piperidin-4-yl}-2-phenylacetamide], in assay [1], the IC50 was 8.53 µM and 8.51 µM. Further, the concentration giving a half-maximal response (EC50) in assay [3] came to 0.129 µM.
